Laboratory results as given in patent publication US20240409519A1, “HYDROGENATED QUINOXALINES” (OTSUKA PHARMACEUTICAL CO., LTD., priority 2021, published 2024).

Columns and labels:
Assay type in all cases: in vitro ADME
CYP2D6 = target: T1, CYP2D6 (Homo sapiens, UniProt P10635); assay: CYP inhibition test (2): 50% inhibitory concentration from 3 concentrations, CYP2D6; settings: human liver microsome, bufuralol substrate, 0.01, 0.03 and 0.1 mmol/L; read-out: 50% inhibitory concentration, 2D6
T1 construct: a human liver microsome solution containing three CYP-specific substrates; from tissue; host or cells: human liver microsomes
T1 sequence (P10635 whole entry): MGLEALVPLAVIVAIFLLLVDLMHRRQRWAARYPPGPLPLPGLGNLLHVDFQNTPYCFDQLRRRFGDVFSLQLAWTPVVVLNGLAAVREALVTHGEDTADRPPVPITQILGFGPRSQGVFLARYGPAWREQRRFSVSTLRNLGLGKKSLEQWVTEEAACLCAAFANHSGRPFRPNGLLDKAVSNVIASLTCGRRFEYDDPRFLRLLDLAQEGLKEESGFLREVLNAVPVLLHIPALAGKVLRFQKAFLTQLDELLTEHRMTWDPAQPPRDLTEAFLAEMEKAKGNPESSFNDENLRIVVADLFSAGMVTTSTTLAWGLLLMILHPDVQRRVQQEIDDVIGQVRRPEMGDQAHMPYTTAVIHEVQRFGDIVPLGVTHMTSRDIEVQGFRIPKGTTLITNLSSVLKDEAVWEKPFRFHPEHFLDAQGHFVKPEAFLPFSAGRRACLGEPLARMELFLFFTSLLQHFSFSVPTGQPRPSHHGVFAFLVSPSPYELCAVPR
Protocol: (§1) A metabolic reaction was initiated by adding and mixing a test compound solution (final concentration 0.01, 0.03 and 0.1 mmol/L) and a NADH/NADPH solution (final concentration 1 mmol/L) to a human liver microsome solution containing three CYP-specific substrates (final concentration 100 mmol/L potassium phosphate buffer solution (pH 7.4), 5 mmol/L magnesium chloride, 0.1 mg/mL human liver microsome, 0.005 mmol/L diclofenac (for CYP2C9), 0.01 mmol/L bufuralol (for CYP2D6), 0.005 mmol/L midazolam (for CYP3A4)). As an internal standard solution, a solution of each of stable isotopes of the metabolites (50 ng/mL [13C6] hydroxy diclofenac, 5 ng/mL [2H9] hydroxy bufuralol, and 5 ng/mL [13C6] hydroxy midazolam (all stable isotopes)) in methanol was prepared and used as a quenching solution. Specifically, a metabolic reaction was initiated by adding and mixing 2 μL of a solution of a test compound in acetonitrile (or acetonitrile as a control) to 178 μL of a human liver microsome solution in ice water, followed by preincubation at 37° C. for 1 minute, and then adding 20 μL of a NADH/NADPH solution thereto. After incubation at 37° C. for 10 minutes, 50 μL of the reaction mixture was taken, and then it was added and mixed to 500 μL of a quenching solution to quech the reaction. The mixture was centrifuged (6130 g, 4° C., 10 minutes) and the supernatant was used as a sample for LC-MS/MS. Peak area ratio ([peak area of metabolite]/[peak area of corresponding stable isotope]) was calculated for a metabolite and a stable isotope of the metabolite as measurement object. By comparing the peak area ratio of each test compound solution with that of the control, the inhibition rate (%) of each CYP species for each test compound was calculated from (1−[peak area ratio of each test compound solution]/[peak area ratio of control])×100.

CYP3A4 = target: T2, CYP3A4 (Homo sapiens, UniProt P08684); assay: CYP inhibition test (2): 50% inhibitory concentration from 3 concentrations, CYP3A4; settings: human liver microsome, midazolam substrate, 0.01, 0.03 and 0.1 mmol/L; read-out: 50% inhibitory concentration, 3A4
T2 construct: a human liver microsome solution containing three CYP-specific substrates; from tissue; host or cells: human liver microsomes
T2 sequence (P08684 whole entry): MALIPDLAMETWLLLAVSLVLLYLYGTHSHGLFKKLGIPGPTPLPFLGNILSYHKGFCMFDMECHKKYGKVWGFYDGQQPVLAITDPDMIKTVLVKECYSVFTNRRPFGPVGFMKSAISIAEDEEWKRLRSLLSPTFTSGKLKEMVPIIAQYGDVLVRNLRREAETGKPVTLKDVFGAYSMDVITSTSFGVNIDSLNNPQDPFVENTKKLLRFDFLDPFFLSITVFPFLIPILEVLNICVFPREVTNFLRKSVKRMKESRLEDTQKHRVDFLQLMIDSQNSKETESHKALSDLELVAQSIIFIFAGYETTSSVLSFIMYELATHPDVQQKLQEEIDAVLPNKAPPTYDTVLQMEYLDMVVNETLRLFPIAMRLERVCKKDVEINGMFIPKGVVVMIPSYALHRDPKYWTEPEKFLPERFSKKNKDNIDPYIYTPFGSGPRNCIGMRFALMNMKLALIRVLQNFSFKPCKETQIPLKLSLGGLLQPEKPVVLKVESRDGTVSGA
Protocol: as §1

CYP2C9 = target: T3, CYP2C9 (Homo sapiens, UniProt P11712); assay: CYP inhibition test (2): 50% inhibitory concentration from 3 concentrations, CYP2C9; settings: human liver microsome, diclofenac substrate, 0.01, 0.03 and 0.1 mmol/L, read-out: 50% inhibitory concentration, 2C9
T3 construct: a human liver microsome solution containing three CYP-specific substrates; from tissue; host or cells: human liver microsomes
T3 sequence (P11712 whole entry): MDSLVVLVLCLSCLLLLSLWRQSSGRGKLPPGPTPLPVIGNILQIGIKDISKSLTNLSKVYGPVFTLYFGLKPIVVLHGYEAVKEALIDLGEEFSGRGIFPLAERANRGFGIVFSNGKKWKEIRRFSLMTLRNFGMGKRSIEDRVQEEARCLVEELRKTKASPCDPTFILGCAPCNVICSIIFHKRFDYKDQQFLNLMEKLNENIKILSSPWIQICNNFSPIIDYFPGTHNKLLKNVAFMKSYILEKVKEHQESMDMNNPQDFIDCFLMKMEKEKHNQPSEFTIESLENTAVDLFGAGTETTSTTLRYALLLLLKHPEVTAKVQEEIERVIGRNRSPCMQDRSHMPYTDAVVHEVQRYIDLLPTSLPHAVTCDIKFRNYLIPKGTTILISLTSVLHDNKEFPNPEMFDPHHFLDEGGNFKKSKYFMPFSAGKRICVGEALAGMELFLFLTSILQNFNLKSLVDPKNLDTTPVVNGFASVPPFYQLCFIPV
Protocol: as §1

| Compound | IC50 (CYP2D6) | IC50 (CYP3A4) | IC50 (CYP2C9) | IC50 at 10 min (CYP2C9; human liver microsomes, pH 7.4, probe diclofenac (0.005 mmol/L)) |
| --- | --- | --- | --- | --- |
| CC1(C)CN(c2ccc(OC(F)(F)CO)cc2)[C@H]2CCCC[C@@H]2N1 [Example 20, 2-(4-((4aS,8aS)-3,3-dimethyloctahydroquinoxalin-1(2H)-yl)phenoxy)-2,2-difluoroethan-1-ol] | > 100 µM | 94.9 µM | > 100 µM |  |
| CC1(C)CN(c2ccc(OC(F)(F)CO)cc2)[C@@H]2CCCC[C@H]2N1 [Example 21] | > 100 µM | > 100 µM | > 100 µM |  |
| COc1cc(N2CC(C)(C)N[C@H]3CCCC[C@@H]32)ccc1OC(F)(F)CO [Example 26] | > 100 µM | > 100 µM | > 100 µM |  |
| CC1(C)CN(c2ccc(OCCO)c(Cl)c2)[C@H]2CCCC[C@@H]2N1 [Example 27, 2-(2-chloro-4-((4aS,8aS)-3,3-dimethyloctahydroquinoxalin-1(2H)-yl)phenoxy)ethan-1-ol] | > 100 µM | > 100 µM | > 100 µM |  |
| CC1(C)CN(c2ccc(OCCO)c(Cl)c2)[C@@H]2CCCC[C@H]2N1 [Example 28] | > 100 µM | > 100 µM | > 100 µM |  |
| Cc1cc(N2CC(C)(C)N[C@H]3CCCC[C@@H]32)ccc1OC(F)(F)CO [Example 31] | > 100 µM | 62.5 µM | > 100 µM |  |
| Cc1cc(N2CC(C)(C)N[C@@H]3CCCC[C@H]32)ccc1OC(F)(F)CO [Example 32] | > 100 µM | 62.8 µM | > 100 µM |  |
| CC1(C)CN(c2cc(F)c(OCCO)c(F)c2)[C@H]2CCCC[C@@H]2N1 [Example 34, 2-(4-((4aS,8aS)-3,3-dimethyloctahydroquinoxalin-1(2H)-yl)-2,6-difluorophenoxy)ethan-1-ol] | > 100 µM | > 100 µM | > 100 µM |  |
| CN1[C@H]2CCCC[C@@H]2N(c2ccc(OC(F)(F)CO)cc2)CC1(C)C [Example 37, 2,2-difluoro-2-(4-((4aS,8aS)-3,3,4-trimethyloctahydroquinoxalin-1(2H)-yl)phenoxy)ethan-1-ol] | > 100 µM | 86.7 µM | > 100 µM |  |

Results, then the compound that gave them:

| IC50 (CYP2D6) | IC50 (CYP3A4) | IC50 (CYP2C9) | IC50 at 10 min (CYP2C9; human liver microsomes, pH 7.4, probe diclofenac (0.005 mmol/L)) | Compound |
| --- | --- | --- | --- | --- |
| > 100 µM | > 100 µM | > 100 µM |  | C[C@@H]1CN(c2cc(F)c(OCCO)c(Cl)c2)[C@H]2CCCC[C@@H]2N1 [Example 17, 2-(2-chloro-6-fluoro-4-((3R,4aS,8aS)-3-methyloctahydroquinoxalin-1(2H)-yl)phenoxy)ethan-1-ol 1/2fumarate] |
| 59.1 µM | > 100 µM | > 100 µM |  | C[C@H]1CN(c2cc(F)c(OCCO)c(Cl)c2)[C@H]2CCCC[C@H]2N1 [Example 18] |
| 55.5 µM | > 100 µM | > 100 µM |  | CC1(C)CN(c2cc(F)c(OCCO)c(F)c2)[C@@H]2CCCC[C@H]2N1 [Example 35] |
| 87.6 µM | > 100 µM |  | 100 µM | CC1(C)CN(c2cc(F)c(OCCO)c(F)c2)[C@H]2CCCC[C@H]2N1 [Example 36] |
